Reference: the supplement of paper PMC11208160

Assay: recombinant barcode read abundance after kanamycin selection (control-corrected) (log10(CPM+1)); higher = more efficient recombination; sequences stand for … in AGTGCAGAGAAAATCGGCCAGTTTTCTCTGCCTGCAGTCCGCATGCCGT…AGATTTATGCAGCGGACTGCCTTTCTCCCAAAGTGATAAACCGGACAGTATCATGGACCGGTTTTCCCGGTAATCCGTATTTGCAAGGTTGGTTTCACT; site = the 11-nt target
Procedure, shortened: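 Each value is log10(CPM+1). It describes recombination efficiency, taken as averaged, control-corrected counts per million of barcodes at recombinant junctions. The pooled E. coli library paired targets with IS621 bridge RNA target-binding loops, was co-electroporated with a donor plasmid, and was plated twice on chloramphenicol/ampicillin LB agar (control) and twice on chloramphenicol/ampicillin/kanamycin containing 0.1 mM IPTG.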
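Further: IS621 recombinase and bridge RNA in Escherichia coli cells.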

Sequence	recombinant barcode read abundance (log10)
TGTGAGCCTTGGGTTCTAACCTGTTGCGA (site CTGCGCTCTAT)	0.0373
TGTGAGCCTTGGGTTCTAACCTGTTGCGA (site TGTGAGCCTTC)	0.748
TGTGCACCTTGGGTTCTAACCTGTTGCAC (site TGTGCACCTGT)	0.32
TGTGCACCTTGGGTTCTAACCTGTTGCAC (site TGTGCTCCTCT)	0.0746
TGTGCGACTTGGGTTCTAACCTGTTGCAC (site TGAGCTACTGT)	0.0835
TGTGCGACTTGGGTTCTAACCTGTTGCAC (site TGTGCGACTGT)	0.0665
TGTGCGTCTTGGGTTCTAACCTGTTGCCT (site AGTGCGTCTAG)	0.0921
TGTGCGTCTTGGGTTCTAACCTGTTGCCT (site CGTGCGTCTAG)	0.136
TGTGCGTCTTGGGTTCTAACCTGTTGCCT (site GGTGCGTCTAG)	0.0172
TGTGCGTCTTGGGTTCTAACCTGTTGCCT (site TGTGCGTCTAG)	0.801
TGTGCTACTTGGGTTCTAACCTGTTGCAC (site GACCTATCTAG)	0.327
TGTGCTACTTGGGTTCTAACCTGTTGCAC (site TGTGCTACTGT)	0.0867
TGTGCTCCTTGGGTTCTAACCTGTTGCAG (site TGTGCACCTGT)	0.294
TGTGCTCCTTGGGTTCTAACCTGTTGCAG (site TGTGCTCCTCT)	0.113
TGTGTCTCTTGGGTTCTAACCTGTTGCGT (site TCTGTCTCTAG)	0.363
TGTGTCTCTTGGGTTCTAACCTGTTGCGT (site TGTGTCTCTAC)	2.63
TGTTGAGCTTGGGTTCTAACCTGTTGCCG (site TGTAGAGCTCG)	0.09
TGTTGAGCTTGGGTTCTAACCTGTTGCCG (site TGTCGAGCTCG)	0.192
TGTTGAGCTTGGGTTCTAACCTGTTGCCG (site TGTGGAGCTCG)	0.258
TGTTGAGCTTGGGTTCTAACCTGTTGCCG (site TGTTGAGCTCG)	0.554
TGTTGTTCTTGGGTTCTAACCTGTTGCCT (site GGTTGTTCTAG)	0.0142
TGTTGTTCTTGGGTTCTAACCTGTTGCCT (site TGTTGTTCTAG)	0.0851

Sequence	recombinant barcode read abundance (log10)
TGTTTAACTTGGGTTCTAACCTGTTGCCT (site TGGTTACCTAG)	0.126
TGTTTAACTTGGGTTCTAACCTGTTGCCT (site TGTTTAACTAG)	0.0368
TTAAAACCTTGGGTTCTAACCTGTTGCCT (site ATAAAACCTAG)	0.0421
TTAAAACCTTGGGTTCTAACCTGTTGCCT (site CTAAAACCTAG)	0.0966
TTAAAACCTTGGGTTCTAACCTGTTGCCT (site GTAAAACCTAG)	0.06
TTAAAACCTTGGGTTCTAACCTGTTGCCT (site TTAAAACCTAG)	0.751
TTAACTACTTGGGTTCTAACCTGTTGCTT (site TTAACTACTAA)	0.0821
TTAACTACTTGGGTTCTAACCTGTTGCTT (site TTAACTACTCA)	0.233
TTAACTACTTGGGTTCTAACCTGTTGCTT (site TTAACTACTGA)	0.294
TTAACTACTTGGGTTCTAACCTGTTGCTT (site TTAACTACTTA)	0.0225
TTAAGCCCTTGGGTTCTAACCTGTTGCCT (site TTAAGACCTAG)	0.288
TTAAGCCCTTGGGTTCTAACCTGTTGCCT (site TTAAGCCCTAG)	1.41
TTAAGCTCTTGGGTTCTAACCTGTTGCCT (site ATAAGCTCTAG)	0.125
TTAAGCTCTTGGGTTCTAACCTGTTGCCT (site CTAAGCTCTAG)	0.197
TTAAGCTCTTGGGTTCTAACCTGTTGCCT (site GTAAGCTCTAG)	0
TTAAGCTCTTGGGTTCTAACCTGTTGCCT (site TTAAGCTCTAG)	1.43
TTAAGTCCTTGGGTTCTAACCTGTTGCAT (site TTAAGTCCTAT)	0.498
TTAAGTCCTTGGGTTCTAACCTGTTGCAT (site TTAGGTCCTAA)	0.0454
TTACCCACTTGGGTTCTAACCTGTTGCCT (site TTACCAACTAG)	0.0275
TTACCCACTTGGGTTCTAACCTGTTGCCT (site TTACCCACTAG)	3.27
TTACCCACTTGGGTTCTAACCTGTTGCCT (site TTACCGACTAG)	0.0929
TTACCCACTTGGGTTCTAACCTGTTGCCT (site TTACCTACTAG)	0.151

Sequence	recombinant barcode read abundance (log10)
TTACGAGCTTGGGTTCTAACCTGTTGCGG (site TTACGAGCTCC)	1.81
TTACGAGCTTGGGTTCTAACCTGTTGCGG (site TTACGCGCTCC)	0.176
TTACGAGCTTGGGTTCTAACCTGTTGCGG (site TTACGGGCTCC)	0.608
TTACGAGCTTGGGTTCTAACCTGTTGCGG (site TTACGTGCTCC)	0.14
TTACGTACTTGGGTTCTAACCTGTTGCCT (site ATACGTACTAG)	0.131
TTACGTACTTGGGTTCTAACCTGTTGCCT (site CTACGTACTAG)	0.193
TTACGTACTTGGGTTCTAACCTGTTGCCT (site GTACGTACTAG)	0.19
TTACGTACTTGGGTTCTAACCTGTTGCCT (site TTACGTACTAG)	1.45
TTACGTGCTTGGGTTCTAACCTGTTGCGG (site TTACGAGCTCC)	0.271
TTACGTGCTTGGGTTCTAACCTGTTGCGG (site TTACGCGCTCC)	0.141
TTACGTGCTTGGGTTCTAACCTGTTGCGG (site TTACGGGCTCC)	0.67
TTACGTGCTTGGGTTCTAACCTGTTGCGG (site TTACGTGCTCC)	2.4
TTAGAGCCTTGGGTTCTAACCTGTTGCCT (site TTAGAGACTAG)	0.0939
TTAGAGCCTTGGGTTCTAACCTGTTGCCT (site TTAGAGCCTAG)	2
TTAGAGCCTTGGGTTCTAACCTGTTGCCT (site TTAGAGGCTAG)	0.173
TTAGAGCCTTGGGTTCTAACCTGTTGCCT (site TTAGAGTCTAG)	0.644
TTAGAGTCTTGGGTTCTAACCTGTTGCCT (site TTAGAGACTAG)	0.103
TTAGAGTCTTGGGTTCTAACCTGTTGCCT (site TTAGAGCCTAG)	0.925
TTAGAGTCTTGGGTTCTAACCTGTTGCCT (site TTAGAGGCTAG)	0.126
TTAGAGTCTTGGGTTCTAACCTGTTGCCT (site TTAGAGTCTAG)	2.08
TTAGCCTCTTGGGTTCTAACCTGTTGCCT (site TTAGCATCTAG)	0.168
TTAGCCTCTTGGGTTCTAACCTGTTGCCT (site TTAGCCTCTAG)	2.66
